Source: patent US20020183205A1, “Use of alpha2-adrenergic receptor agonists and adrenergic inhibitors in reducing defoliation” (priority 2001, published 2002)

How the values were obtained:
Format in all cases: in vivo
[1] = test system: calamondin (Citrus madurensis); assay: Fruit detachment force (FDF) of calamondin after canopy spray with agonists alone or in combination with Ethrel; conditions: 5 days after application
Experimental: (§1) A solution of an α2-adrenergic agonist was prepared. The solution contained 0.25 to 2 mM of agonist dissolved in water containing an appropriate surfactant. Ethrel® (2-chloroethyl phosphonic acid), an abscission agent, was added at a concentration that causes fruit loosening (in the case of citrus, 100 to 400 mg/L, depending on the variety). The solution was sprayed onto a tree canopy until “run-off,” typically about 2.5 liters per 15 foot tree. […] Under field conditions the canopies were not sprayed with the agonist-containing solutions if rainfall was anticipated within 24 hours. A positive control, containing a suitable concentration of Ethrel® or other abscission agent, as well as an agonist and surfactant control were sprayed on separate canopies. After several days, usually 3 to 10, differences in leaf drop were measured by counting or weighing dropped leaves. Fruit detachment force (FDF, a measurement defined as the force required to remove fruit from the tree stem) was measured in all treatments.
(§2) Kinetic® was used as a surfactant. Leaf drop data are leaf loss means of 3 branches times 10 trees, 7 days after application. FDF data are means of 5 fruit times 10 trees, 5 days after application.

[2] = test system: calamondin (Citrus madurensis); assay: Leaf drop of calamondin after canopy spray with agonists alone or in combination with Ethrel; conditions: 7 days after application
Experimental: as §1, §2

[3] = test system: Valencia orange (Citrus sinensis); assay: Leaf drop of Valencia orange, clonidine alone or in combination with Ethrel; conditions: 7 days after application
Experimental: as §1
Kinetic® was used as a surfactant. Data are the leaf loss means of 3 branches times 5 trees, 7 days after application.

Valencia orange = assay: Leaf drop of Valencia orange, Ethrel, coronatine, coronatine+guanfacine; conditions: 10 days after application
Experimental: The effect of Ethrel, coronatine, coronatine+guanfacine, and adjuvant alone on % cumulative leaf drop in Valencia orange was tested. The data reported in Table 3 are means of 3 branches times 5 trees, 10 days after application.

[4] = agonist 1 mM + Ethrel 400 mg/L, Kinetic surfactant
[5] = agonist 1 mM alone, Kinetic surfactant
[6] = Ethrel 400 mg/L alone (positive control)
[7] = agonist 0.5 mM + Ethrel 400 mg/L, Kinetic surfactant
[8] = agonist 0.5 mM alone, Kinetic surfactant

**Q.** With Clc1cccc(Cl)c1N=C1NCCN1 [Clonidine, clonidine] as the compound, how does the “% Reduction in FDF” value [1, 4] read?
**A.** 40.5%

**Q.** What about the “% Reduction in FDF” value [1, 5] of the same compound?
**A.** 0.5%

**Q.** And the “% Cumulative Leaf Drop” value [2, 4]?
**A.** 13.4%

**Q.** What about the “% Cumulative Leaf Drop” value [2, 5] of the same compound?
**A.** 5.8%

**Q.** And the “% Cumulative Leaf Drop” value ([3]; 1 mM clonidine + Ethrel 100 mg/L)?
**A.** 6.1%

**Q.** And the “% Cumulative Leaf Drop” value ([3]; 1 mM clonidine + Ethrel 200 mg/L)?
**A.** 14.3%

**Q.** What about the “% Cumulative Leaf Drop” value ([3]; 1 mM clonidine alone) of the same compound?
**A.** 2.7%

**Q.** And the “% Cumulative Leaf Drop” value ([3]; 2 mM clonidine + Ethrel 100 mg/L)?
**A.** 7.0%

**Q.** And the “% Cumulative Leaf Drop” value ([3]; 2 mM clonidine + Ethrel 200 mg/L)?
**A.** 15.1%

**Q.** And the “% Cumulative Leaf Drop” value ([3]; 2 mM clonidine alone)?
**A.** 3.2%

**Q.** Which “% Cumulative Leaf Drop” value (Valencia orange; Ethrel 200 mg/L alone) does the source give for O=P(O)(O)CCCl [Ethrel ®, 2-chloroethyl phosphonic acid] here?
**A.** 49.23%

**Q.** And the “% Reduction in FDF” value [1, 6]?
**A.** 41.6%

**Q.** What about the “% Cumulative Leaf Drop” value [2, 6] of the same compound?
**A.** 68.3%

**Q.** What about the “% Cumulative Leaf Drop” value ([3]; Ethrel 100 mg/L alone) of the same compound?
**A.** 19.1%

**Q.** What about the “% Cumulative Leaf Drop” value ([3]; Ethrel 200 mg/L alone) of the same compound?
**A.** 43.8%

**Q.** What does the source list for N=C(N)N/N=C/c1c(Cl)cccc1Cl [Guanabenz, guanabenz]?
**A.** % Reduction in FDF [1, 4]: 34.6%; % Reduction in FDF [1, 5]: 1.0%; % Cumulative Leaf Drop [2, 4]: 14.1%; % Cumulative Leaf Drop [2, 5]: 5.9%

**Q.** For N=C(N)NC(=O)Cc1c(Cl)cccc1Cl [Guanafacine, guanfacine], which “% Cumulative Leaf Drop” value (Valencia orange; 2 mM guanfacine + coronatine 200 mg/L) is on record?
**A.** 3.07%

**Q.** And the “% Reduction in FDF” value [1, 4]?
**A.** 34.8%

**Q.** And the “% Reduction in FDF” value [1, 5]?
**A.** 1.0%

**Q.** And the “% Cumulative Leaf Drop” value [2, 4]?
**A.** 4.8%

**Q.** And the “% Cumulative Leaf Drop” value [2, 5]?
**A.** 6.5%

**Q.** For Brc1c(NC2=NCCN2)ccc2nccnc12 [UK14,304, Brimonidine], which “% Reduction in FDF” value [1, 7] is on record?
**A.** 33.4%

**Q.** And the “% Reduction in FDF” value [1, 8]?
**A.** 1.2%

**Q.** What about the “% Cumulative Leaf Drop” value [2, 7] of the same compound?
**A.** 15.6%

**Q.** And the “% Cumulative Leaf Drop” value [2, 8]?
**A.** 6.0%

**Q.** Which “% Cumulative Leaf Drop” value (Valencia orange; coronatine 200 mg/L alone) does the source give for CC[C@H]1C=C(C(=O)N[C@@]2(C(=O)O)C[C@@H]2CC)[C@H]2CCC(=O)[C@H]2C1 [coronatine] here?
**A.** 12.56%
